# Results: article PMC6364417, “Kinase inhibitor library screening identifies synergistic drug combinations effective in sensitive and resistant melanoma cells” (Journal of Experimental & Clinical Cancer Research : CR, 2019)
# Values joined by “and” are separate entries in the source; they are usually repeats but may differ in a detail not shown here. Equal values may be shown once. Read-outs that look alike come from different tables or passages of the source.
# How the values were obtained:
# Experiment in all cases: Kinase inhibitor library screening, PrestoBlue cell viability, 1 or 10 μM, 72 h
# 501Mel cells (parental) = system: 501Mel cells (parental)
# Outline: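 Values are % viability versus untreated wells, measured by PrestoBlue after a 72 h drug exposure. Screens covered the parental line plus sublines rendered resistant to Vemurafenib or Dabrafenib, each analysed in at least duplicate.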
# A375 cells (parental) = system: A375 cells (parental)
# [1] = system: A375-GP cells (Dabrafenib-resistant)
# IGR37 cells (parental) = system: IGR37 cells (parental)
# [2] = system: 501Mel-XP cells (Vemurafenib-resistant)
# [3] = system: IGR37-XP cells (Vemurafenib-resistant)
# [4] = system: A375-XP cells (Vemurafenib-resistant)
# [5] = system: IGR37-GP cells (Dabrafenib-resistant)
# [6] = system: 501Mel-GP cells (Dabrafenib-resistant)
smiles,measurement,setting,value
"CC[C@H](CO)Nc1nc(NCc2ccccc2)c2ncn(C(C)C)c2n1 [Roscovitine (Seliciclib, CYC202)]",cell viability (kinase inhibitor library screening),501Mel cells (parental),95.0% and 93.4%
same,cell viability (kinase inhibitor library screening),A375 cells (parental),90.5%
same,cell viability (kinase inhibitor library screening),[1],109.1% and 86.5%
same,cell viability (kinase inhibitor library screening),IGR37 cells (parental),85.4% and 104.3%
same,cell viability (kinase inhibitor library screening),[2],93.6% and 61.7%
same,cell viability (kinase inhibitor library screening),[3],96.5% and 59.2%
same,cell viability (kinase inhibitor library screening),[4],109.6% and 86.5%
same,cell viability (kinase inhibitor library screening),[5],93.8% and 90.7%
same,cell viability (kinase inhibitor library screening),[6],85.2%
N#CC[C@H](C1CCCC1)n1cc(-c2ncnc3[nH]ccc23)cn1 [Ruxolitinib (INCB018424)],viability at 1 µM,"501Mel cells (parental); Homo sapiens, 72 h, read-out: cell viability, 501Mel Parental, 1μΜ",95.6%
same,viability at 10 µM,"501Mel cells (parental); Homo sapiens, 72 h, read-out: cell viability, 501Mel Parental, 10μΜ",96.5%
same,viability at 1 µM,"A375 cells (parental); Homo sapiens, A-375, 72 h, read-out: cell viability, A375 Parental, 1μΜ",102%
same,viability at 10 µM,"A375 cells (parental); Homo sapiens, A-375, 72 h, read-out: cell viability, A375 Parental, 10μΜ",92.9%
same,viability at 1 µM,"[1]; Homo sapiens, A-375, 72 h, read-out: cell viability, A375 GP, 1μΜ",95.8%
same,viability at 10 µM,"[1]; Homo sapiens, A-375, 72 h, read-out: cell viability, A375 GP, 10μΜ",88.9%
same,viability at 1 µM,"IGR37 cells (parental); Homo sapiens, IGR-37, 72 h, read-out: cell viability, IGR37 Parental, 1μΜ",97%
same,viability at 10 µM,"IGR37 cells (parental); Homo sapiens, IGR-37, 72 h, read-out: cell viability, IGR37 Parental, 10μΜ",96.3%
same,viability at 1 µM,"[2]; Homo sapiens, 72 h, read-out: cell viability, 501Mel XP, 1μΜ",93.9%
same,viability at 10 µM,"[2]; Homo sapiens, 72 h, read-out: cell viability, 501Mel XP, 10μΜ",86.6%
same,viability at 1 µM,"[3]; Homo sapiens, IGR-37, 72 h, read-out: cell viability, IGR37 XP, 1μΜ",103%
same,viability at 10 µM,"[3]; Homo sapiens, IGR-37, 72 h, read-out: cell viability, IGR37 XP, 10μΜ",76.6%
same,viability at 1 µM,"[4]; Homo sapiens, A-375, 72 h, read-out: cell viability, A375 XP, 1μΜ",102%
same,viability at 10 µM,"[4]; Homo sapiens, A-375, 72 h, read-out: cell viability, A375 XP, 10μΜ",106%
same,viability at 1 µM,"[5]; Homo sapiens, IGR-37, 72 h, read-out: cell viability, IGR37 GP, 1μΜ",93.2%
same,viability at 10 µM,"[5]; Homo sapiens, IGR-37, 72 h, read-out: cell viability, IGR37 GP, 10μΜ",88.6%
same,viability at 1 µM,"[6]; Homo sapiens, 72 h, read-out: cell viability, 501Mel GP, 1μΜ",103%
same,viability at 10 µM,"[6]; Homo sapiens, 72 h, read-out: cell viability, 501Mel GP, 10μΜ",87.9%
CN(C)CCOc1ccc(-c2nc(-c3ccncc3)c(-c3ccc4c(c3)CC/C4=N\O)[nH]2)cc1 [SB590885],cell viability (kinase inhibitor library screening),"501Mel cells (parental); 501Mel Parental, 1μΜ, in %",74.7
same,cell viability (kinase inhibitor library screening),"501Mel cells (parental); 501Mel Parental, 10μΜ, in %",0.649
same,cell viability (kinase inhibitor library screening),"A375 cells (parental); A375 Parental, 1μΜ, in %",38.0
same,cell viability (kinase inhibitor library screening),"A375 cells (parental); A375 Parental, 10μΜ, in %",33.1
same,cell viability (kinase inhibitor library screening),"[1]; A375 GP, 1μΜ, in %",73.8
same,cell viability (kinase inhibitor library screening),"[1]; A375 GP, 10μΜ, in %",25.8
same,cell viability (kinase inhibitor library screening),"IGR37 cells (parental); IGR37 Parental, 1μΜ, in %",52.0
same,cell viability (kinase inhibitor library screening),"IGR37 cells (parental); IGR37 Parental, 10μΜ, in %",40.7
same,cell viability (kinase inhibitor library screening),"[2]; 501Mel XP, 1μΜ, in %",121.3
same,cell viability (kinase inhibitor library screening),"[2]; 501Mel XP, 10μΜ, in %",0.7
same,cell viability (kinase inhibitor library screening),"[3]; IGR37 XP, 10μΜ, in %",30.0
same,cell viability (kinase inhibitor library screening),"[4]; A375 XP, 1μΜ, in %",71.7
same,cell viability (kinase inhibitor library screening),"[4]; A375 XP, 10μΜ, in %",18.9
same,cell viability (kinase inhibitor library screening),"[5]; IGR37 GP, 10μΜ, in %",79.6
same,cell viability (kinase inhibitor library screening),"[6]; 501Mel GP, 1μΜ, in %",110.5
same,cell viability (kinase inhibitor library screening),"[6]; 501Mel GP, 10μΜ, in %",0.56
Oc1ccc(-c2nc(-c3ccncc3)c(-c3ccc(F)cc3)[nH]2)cc1 [SB 202190],"Cell viability in kinase inhibitor library screening, 501Mel Parental, 1μΜ","501Mel cells (parental); 501Mel Parental, 1μΜ, 72 h, in %",105.7
same,"Cell viability in kinase inhibitor library screening, 501Mel Parental, 10μΜ","501Mel cells (parental); 501Mel Parental, 10μΜ, 72 h, in %",89.1
same,"Cell viability in kinase inhibitor library screening, A375 Parental, 10μΜ","A375 cells (parental); A375 Parental, 10μΜ, 72 h",64.6
same,"Cell viability in kinase inhibitor library screening, A375 Parental, 1μΜ","A375 cells (parental); A375 Parental, 1μΜ, 72 h",114.0
same,"Cell viability in kinase inhibitor library screening, A375 GP, 1μΜ","[1]; A375 GP, 1μΜ, 72 h",105.4
same,"Cell viability in kinase inhibitor library screening, A375 GP, 10μΜ","[1]; A375 GP, 10μΜ, 72 h",98.4
same,"Cell viability in kinase inhibitor library screening, IGR37 Parental, 1μΜ","IGR37 cells (parental); IGR37 Parental, 1μΜ, 72 h, in %",118.8
same,"Cell viability in kinase inhibitor library screening, IGR37 Parental, 10μΜ","IGR37 cells (parental); IGR37 Parental, 10μΜ, 72 h, in %",83.2
same,"Cell viability in kinase inhibitor library screening, 501Mel XP, 1μΜ","[2]; 501Mel XP, 1μΜ, 72 h, in %",98.4
same,"Cell viability in kinase inhibitor library screening, 501Mel XP, 10μΜ","[2]; 501Mel XP, 10μΜ, 72 h, in %",74.6
same,"Cell viability in kinase inhibitor library screening, IGR37 XP, 10μΜ","[3]; IGR37 XP, 10μΜ, 72 h",56.3%
same,"Cell viability in kinase inhibitor library screening, IGR37 XP, 1μΜ","[3]; IGR37 XP, 1μΜ, 72 h, in %",103.1
same,"Cell viability in kinase inhibitor library screening, A375 XP, 10μΜ","[4]; A375 XP, 10μΜ, 72 h",98.7
same,"Cell viability in kinase inhibitor library screening, IGR37 GP, 10μΜ","[5]; IGR37 GP, 10μΜ, 72 h",85.3%
same,"Cell viability in kinase inhibitor library screening, IGR37 GP, 1μΜ","[5]; IGR37 GP, 1μΜ, 72 h, in %",104.9
same,"Cell viability in kinase inhibitor library screening, 501Mel GP, 1μΜ","[6]; 501Mel GP, 1μΜ, 72 h, in %",108.3
same,"Cell viability in kinase inhibitor library screening, 501Mel GP, 10μΜ","[6]; 501Mel GP, 10μΜ, 72 h, in %",90.0
